Experimental data from patent publication US9763444B2, “Compositions and methods for repelling blood-sucking and biting insects, ticks and mites” (The United States of America, as represented by the …, priority 2013, dated 2017).

Legend:
Ae. aegypti = assay: Minimum Effective Dosage (MED) test on treated cloth, mosquito repellency; format: in vivo, Aedes aegypti; details: for mosquito repellent activity against Ae. aegypti (in words): MED test on treated cloth; for Ae. aegypti Minimum Effective Dosage, F1: human subject F1; for Ae. aegypti Minimum Effective Dosage, M1: human subject M1; for Ae. aegypti Minimum Effective Dosage, M2: human subject M2; for Ae. aegypti Minimum Effective Dosage, Average: mean of 3 volunteers; for Ae. aegypti Minimum Effective Dosage, M9: human subject M9; for Ae. aegypti Minimum Effective Dosage, M10: human subject M10
Description: Bioassay for mosquito repellent activity: Repellency screening test for experimental chemicals were carried out to identify candidates that might be useful repellents. The repellent efficacy was compared to that of the standard repellent, DEET. Experimental compounds were assessed in one of two ways: (1) a range of concentration was evaluated to determine the minimum effective dosage (MED) which was the concentration threshold of where the repellent began to fail and allowed bites, or (2) a predetermined concentration of each repellent was applied to cloth and the activity was evaluated over several days (or in some cases months) (Katritzky, A. R., et al., Proc. Nat. Acad. Sci. (US), 105, 7359-7364 (2008); Katritzky, A. R., et al., Journal of Med. Entomol., 47: 924-938 (2010)). When conducting assays for repellency, a failure point was also predetermined for those measurements. Since experiments described herein used about 500 female mosquitoes per test, the failure point was set at 1% (equal to 5 bites) received during a test interval. From 3 to 5 volunteers participated in the screening of each set of chemicals.
Minimum Effective Dosage (MED) Test: The MED bioassays on treated cloth were a method of screening to determine the minimum amount of a repellent needed to prevent bites. Experimental compounds were prepared in solution by combining 0.15 g of experimental chemical with 2 mL of acetone in a 7.1 mL screwtop glass vial. This solution was then serially diluted to obtain nine concentrations when applied on to the cloth patch: 1.5, 0.75, 0.375, 0.187, 0.094, 0.047, 0.023, 0.011, and 0.006 mg/cm^2. The standard N,N-diethyl-3-methylbenzamide (DEET) was also tested at the same concentration levels to serve as a control and a comparison for relative repellency. A 50 cm^2 (5 cm×10 cm) patch of muslin cloth was rolled lengthwise and placed into each of the glass vials and scaled with a screwtop so it soaked up the solution. Just prior to the experiment, the pieces of treated cloth were removed from the vials, affixed to card stock tabs (5 cm×3 cm) with staples, and hung with masking tape on a rack to dry and allow acetone to evaporate. Volunteers wore a latex glove over their hands, a nylon stocking over their arm, and then wrapped a plastic Velcro-sealed sleeve over their entire forearm with a 32 cm^2 (4 cm×8 cm) window cut-out to allow mosquitoes to bite through. The nylon stocking acted as a barrier between the dried cloth and the skin, an additional precaution with experimental compounds. Dried cloth patches were stretched across the window in the plastic sleeve and held in place with masking tape. Volunteers placed their sleeve-covered arms into a screened cage for a one minute period with approximately 500 female Ae. aegypti mosquitoes that had been preselected for host-seeking behavior using a draw box (Posey, K. H., and C. E. Schreck, Mosquito News, 41: 566-568 (1981)). […] The MED recorded was the lowest passing concentration level tested for the experimental compound. […] All human volunteers in the study provided informed consent to participate of a protocol approved by the University of Florida Human Use Institutional Review Board (IRB #636-2005).

An. albimanus = assay: as above; format: in vivo, Anopheles albimanus; details: Table 4, highest concentration 1.500 mg/cm^2; for An. albimanus Minimum Effective Dosage, M4: subject M4; for An. albimanus Minimum Effective Dosage, M5: subject M5; for An. albimanus Minimum Effective Dosage, M8: subject M8; for An. albimanus Minimum Effective Dosage, M9: subject M9; for An. albimanus Minimum Effective Dosage, M10: subject M10
[1] = Table 5, subject M4, highest dose 0.375 mg/cm2 (0.187 for 7)
[2] = Table 5, subject M5, highest dose 0.375 mg/cm2 (0.187 for 7)
[3] = Table 5, subject M8, highest dose 0.375 mg/cm2 (0.187 for 7)
[4] = Table 2, highest concentration 1.500 mg/cm^2
[5] = Table 1 preliminary assay, human subject M4, highest concentration 1.500 mg/cm^2
[6] = Table 1 preliminary assay, human subject M5, highest concentration 1.500 mg/cm^2
[7] = Table 1 preliminary assay, human subject M8, highest concentration 1.500 mg/cm^2
[8] = Table 1 preliminary assay, highest concentration 1.500 mg/cm^2

SMILES	mosquito repellent activity against Ae. aegypti (in words) (Ae. aegypti)	Ae. aegypti Minimum Effective Dosage, M4 (Ae. aegypti; [1]) [mg/cm^2]	Ae. aegypti Minimum Effective Dosage, M5 (Ae. aegypti; [2]) [mg/cm^2]	Ae. aegypti Minimum Effective Dosage, M8 (Ae. aegypti; [3]) [mg/cm^2]	Ae. aegypti Minimum Effective Dosage, F1 (Ae. aegypti; [4]) [mg/cm^2]	Ae. aegypti Minimum Effective Dosage, M1 (Ae. aegypti; [4]) [mg/cm^2]	Ae. aegypti Minimum Effective Dosage, M2 (Ae. aegypti; [4]) [mg/cm^2]	other results
COC(=O)c1ccc2c(c1)OC(C)(C)C=C2 [Compound 8]	ineffective	>0.375	>0.375	>0.375				
CC1(C)C=Cc2ccc(Cl)cc2O1 [Compound 12]					0.750	0.750	0.750	Ae. aegypti Minimum Effective Dosage, Average (Ae. aegypti; Table 2): 0.750 mg/cm^2
COCCc1ccc2c(c1)C=CC(C)(C)O2 [Compound 19, 6-(2-methoxyethyl)-2,2-dimethyl-2H-chromene]	did not show any improvement of activity	>0.375	>0.375	>0.375				
CC1(C)C=Cc2cccc(Cl)c2O1 [Compound 15]					0.094	0.094	0.187	Ae. aegypti Minimum Effective Dosage, Average (Ae. aegypti; Table 2): 0.125 mg/cm^2
COC(=O)c1cccc2c1C=CC(C)(C)O2 [Compound 6]	ineffective at the highest dosage tested	>0.375	>0.375	>0.375				
COC(=O)c1ccc2c(c1)C=CC(C)(C)O2 [Compound 5]	mixed results							An. albimanus Minimum Effective Dosage, M4 (An. albimanus): 0.187 mg/cm^2; An. albimanus Minimum Effective Dosage, M5 (An. albimanus): 0.375 mg/cm^2; An. albimanus Minimum Effective Dosage, M8 (An. albimanus): >1.500 mg/cm^2; An. albimanus Minimum Effective Dosage, M9 (An. albimanus): 0.187 mg/cm^2; An. albimanus Minimum Effective Dosage, M10 (An. albimanus): 0.750 mg/cm^2; Ae. aegypti Minimum Effective Dosage, M4 (Ae. aegypti; [5]): >1.500 mg/cm^2; Ae. aegypti Minimum Effective Dosage, M5 (Ae. aegypti; [6]): 0.375 mg/cm^2; Ae. aegypti Minimum Effective Dosage, M8 (Ae. aegypti; [7]): 0.187 mg/cm^2; Ae. aegypti Minimum Effective Dosage, M9 (Ae. aegypti; [8]): 0.375 mg/cm^2; Ae. aegypti Minimum Effective Dosage, M10 (Ae. aegypti; [8]): >1.500 mg/cm^2
CC1(C)C=Cc2cc(CO)ccc2O1 [Compound 7]	ineffective	>0.187	>0.187	>0.187				
COCc1cccc2c1C=CC(C)(C)O2 [Compound 18, 5-(methoxymethyl)-2,2-dimethyl-2H-chromene]	diminished repellent activity	0.047	0.047	0.187				Ae. aegypti Minimum Effective Dosage, Average (Ae. aegypti; Table 5): 0.094 mg/cm^2
COC(=O)c1ccc(Cl)c2c1C=CC(C)(C)O2 [Compound 14, Methyl 8-chloro-2,2-dimethyl-2H-chromene-5-carboxylate]					>1.500	>1.500	>1.500	
COC(=O)c1c(Cl)ccc2c1C=CC(C)(C)O2 [Compound 16]					>1.500	>1.500	>1.500	
CC(=O)c1ccc2c(c1O)C=CC(C)(C)O2 [Compound 3]	least repellent							An. albimanus Minimum Effective Dosage, M4 (An. albimanus): 0.094 mg/cm^2; An. albimanus Minimum Effective Dosage, M5 (An. albimanus): >1.500 mg/cm^2; An. albimanus Minimum Effective Dosage, M8 (An. albimanus): >1.500 mg/cm^2; An. albimanus Minimum Effective Dosage, M9 (An. albimanus): 0.375 mg/cm^2; An. albimanus Minimum Effective Dosage, M10 (An. albimanus): >1.500 mg/cm^2; Ae. aegypti Minimum Effective Dosage, M4 (Ae. aegypti; [5]): >1.500 mg/cm^2; Ae. aegypti Minimum Effective Dosage, M5 (Ae. aegypti; [6]): 0.187 mg/cm^2; Ae. aegypti Minimum Effective Dosage, M8 (Ae. aegypti; [7]): >1.500 mg/cm^2; Ae. aegypti Minimum Effective Dosage, M9 (Ae. aegypti; [8]): >1.500 mg/cm^2; Ae. aegypti Minimum Effective Dosage, M10 (Ae. aegypti; [8]): >1.500 mg/cm^2
COC(=O)Cc1ccc2c(c1)C=CC(C)(C)O2 [Compound 10]		>0.375	>0.375	>0.375	0.375	0.750	0.375	Ae. aegypti Minimum Effective Dosage, Average (Ae. aegypti; Table 2): 0.500 mg/cm^2
COc1ccc(CO)c2c1C=CC(C)(C)O2 [Compound 4]	mixed results							An. albimanus Minimum Effective Dosage, M4 (An. albimanus): >1.500 mg/cm^2; An. albimanus Minimum Effective Dosage, M5 (An. albimanus): >1.500 mg/cm^2; An. albimanus Minimum Effective Dosage, M8 (An. albimanus): >1.500 mg/cm^2; An. albimanus Minimum Effective Dosage, M9 (An. albimanus): 0.750 mg/cm^2; An. albimanus Minimum Effective Dosage, M10 (An. albimanus): >1.500 mg/cm^2; Ae. aegypti Minimum Effective Dosage, M4 (Ae. aegypti; [5]): >1.500 mg/cm^2; Ae. aegypti Minimum Effective Dosage, M5 (Ae. aegypti; [6]): 0.375 mg/cm^2; Ae. aegypti Minimum Effective Dosage, M8 (Ae. aegypti; [7]): 0.375 mg/cm^2; Ae. aegypti Minimum Effective Dosage, M9 (Ae. aegypti; [8]): 0.750 mg/cm^2; Ae. aegypti Minimum Effective Dosage, M10 (Ae. aegypti; [8]): >1.500 mg/cm^2
